Assay results from publication PMC9249791, “Molecular dissection of the glutamine synthetase-GlnR nitrogen regulatory circuitry in Gram-positive bacteria” (Nature Communications, 2022).

Key:
Format in all cases: binding
Sa GS = biological target: T1, Sa GS (Staphylococcus aureus, UniProt P0A040); assay: isothermal titration calorimetry
T1 construct: gene glnA; full-length, synthetic gene in pET15b, N-terminal His-tag, E. coli C41(DE3); tag removed only for crystallography; dodecamer (double hexamer ring)
T1 sequence (P0A040 1-446): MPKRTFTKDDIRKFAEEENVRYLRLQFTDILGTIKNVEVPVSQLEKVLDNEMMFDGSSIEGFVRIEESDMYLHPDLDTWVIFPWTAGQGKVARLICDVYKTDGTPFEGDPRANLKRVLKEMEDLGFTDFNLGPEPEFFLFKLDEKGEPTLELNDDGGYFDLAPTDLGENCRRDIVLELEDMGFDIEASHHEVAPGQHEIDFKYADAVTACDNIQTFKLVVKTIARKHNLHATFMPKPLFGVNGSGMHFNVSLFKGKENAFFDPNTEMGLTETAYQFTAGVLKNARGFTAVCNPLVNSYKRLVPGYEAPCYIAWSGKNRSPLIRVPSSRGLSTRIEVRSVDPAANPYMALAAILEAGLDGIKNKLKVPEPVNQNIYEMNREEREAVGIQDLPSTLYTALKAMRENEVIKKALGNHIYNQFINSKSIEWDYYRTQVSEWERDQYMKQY

Pp GS = biological target: T2, Pp GS (Paenibacillus polymyxa, UniProt A0A0F0G8G2); assay: cryo-EM structure […]-2.[…] Å; details: 20 mM glutamine, 5 mM MgCl2, pH 7.5, with GlnR C-tail peptide; overlaps glutamate site
T2 construct: gene glnA2; full-length, synthetic gene in pET15b, N-terminal His-tag (removed by thrombin for crystallography), E. coli C41(DE3)
T2 sequence (A0A0F0G8G2 1-442): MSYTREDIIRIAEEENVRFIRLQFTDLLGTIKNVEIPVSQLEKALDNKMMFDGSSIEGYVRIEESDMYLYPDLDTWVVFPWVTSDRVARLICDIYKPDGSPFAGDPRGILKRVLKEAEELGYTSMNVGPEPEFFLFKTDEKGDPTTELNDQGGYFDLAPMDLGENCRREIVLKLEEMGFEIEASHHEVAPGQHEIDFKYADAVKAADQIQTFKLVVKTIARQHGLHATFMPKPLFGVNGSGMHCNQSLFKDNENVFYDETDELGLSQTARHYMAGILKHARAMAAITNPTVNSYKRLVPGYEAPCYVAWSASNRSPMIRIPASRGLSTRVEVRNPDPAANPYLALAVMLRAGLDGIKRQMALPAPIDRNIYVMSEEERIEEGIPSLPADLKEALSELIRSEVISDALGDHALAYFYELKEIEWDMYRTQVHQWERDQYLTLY

Bs GS = biological target: T3, Bs GS (Bacillus subtilis, UniProt P12425); assay: cryo-EM structure […] Å; details: 20 mM glutamine, 5 mM MgCl2, pH 7.5, with GlnR C-tail peptide; overlaps glutamate site
T3 construct: gene glnA; full-length, synthetic gene in pET15b, N-terminal His-tag, E. coli C41(DE3); apo dodecamer
T3 sequence (P12425 1-444): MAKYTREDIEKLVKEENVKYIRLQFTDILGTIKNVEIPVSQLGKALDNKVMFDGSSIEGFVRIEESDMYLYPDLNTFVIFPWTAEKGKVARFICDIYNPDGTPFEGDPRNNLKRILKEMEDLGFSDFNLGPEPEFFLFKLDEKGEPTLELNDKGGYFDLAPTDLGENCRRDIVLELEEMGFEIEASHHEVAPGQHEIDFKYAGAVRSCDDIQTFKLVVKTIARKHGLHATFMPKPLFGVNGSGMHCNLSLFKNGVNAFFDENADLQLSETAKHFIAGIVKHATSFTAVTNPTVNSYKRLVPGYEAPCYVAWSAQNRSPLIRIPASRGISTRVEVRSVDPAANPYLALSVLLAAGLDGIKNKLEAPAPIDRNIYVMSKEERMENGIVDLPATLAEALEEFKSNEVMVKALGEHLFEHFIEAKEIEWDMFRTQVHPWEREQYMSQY

Lm GS = biological target: T4, Lm GS (Listeria monocytogenes, UniProt A0A5D5GA79); assay: cryo-EM structure […] Å; details: 20 mM glutamine, 5 mM MgCl2, pH 7.5, with GlnR C-tail peptide; overlaps glutamate site
T4 construct: gene glnA; full-length, synthetic gene in pET15b, N-terminal His-tag, E. coli C41(DE3); apo dodecamer
T4 sequence (A0A5D5GA79 1-444): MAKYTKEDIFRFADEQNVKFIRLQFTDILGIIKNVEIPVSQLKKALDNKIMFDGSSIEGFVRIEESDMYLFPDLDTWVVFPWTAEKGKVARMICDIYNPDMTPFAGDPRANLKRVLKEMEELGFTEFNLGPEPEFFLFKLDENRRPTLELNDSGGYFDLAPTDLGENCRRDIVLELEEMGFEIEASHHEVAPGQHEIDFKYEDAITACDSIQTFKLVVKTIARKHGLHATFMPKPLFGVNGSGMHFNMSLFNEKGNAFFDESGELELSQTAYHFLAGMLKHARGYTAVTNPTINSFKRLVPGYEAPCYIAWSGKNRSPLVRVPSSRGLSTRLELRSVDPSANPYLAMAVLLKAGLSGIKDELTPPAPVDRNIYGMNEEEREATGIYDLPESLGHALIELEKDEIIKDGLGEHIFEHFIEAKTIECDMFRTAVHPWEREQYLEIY

## NC(=O)CC[C@H](N)C(=O)O [glutamine]
Sa GS
  Kd: 500 µM
Pp GS
  cryo-EM structure 2.07-2.28 Å: Glutamine binds identically in each structure to form FBI-GS
Bs GS
  cryo-EM structure 1.96 Å: Glutamine binds identically in each structure to form FBI-GS
Lm GS
  cryo-EM structure 2.61 Å: Glutamine binds identically in each structure to form FBI-GS
